Results published in patent publication US9409952B2, “Peptide-compound cyclization method” (Chugai Seiyaku Kabushiki Kaisha, priority 2011, dated 2016).
Starred links: 1 amine or outer side, 2 acyl side, 3 side chain; linkers in the order of their positions; H or OH if unused. Positions of bridges follow the written chain, without caps; N, C: chain ends. Non-standard residues stand in square brackets, D forms with d. Residues, ends and D or L forms follow the SMILES beside them. *: point of attachment. NMeF = CN[C@@H](Cc1ccccc1)C(=O)O; NMeI = CC[C@H](C)[C@H](NC)C(=O)O; NMeβAla = CN(CCC(=O)[*:2])[*:1]; NMeL = CN[C@@H](CC(C)C)C(=O)O; NMeV = CN[C@H](C(=O)O)C(C)C; NMeA = CN[C@@H](C)C(=O)O; Piperidide = C1CCN(*)CC1; dNMeA = CN[C@H](C)C(=O)O; Sar = CNCC(=O)O; tBu = CC(C)(C)*

test: PAMPA (parallel artificial membrane permeability assay); type: in vitro ADME; settings: PAMPA, pH 6.5
Method: 4 μL of a phospholipid-organic solvent solution composed of 10% (w/v) of egg lecithin, 0.5% (w/v) of cholesterol and dodecane (all purchased from Fluka) was added to a Millipore 96-well membrane filter (hydrophobic PVDF (polyvinylidene difluoride), pore size 0.45 microm) (purchased from Millipore Japan) to make an artificial phospholipid membrane.
A DMSO solution containing the compound at a concentration of 10 mM was added in a percentage of 0.5% (v/v) to a 50 mM MOPSO buffer, pH 6.5, containing 5.0% (w/v) of glycocholic acid, and 330 μL of the mixture was added to a 96-well plate made of Teflon (donor plate). The above artificial phospholipid membrane plate was attached onto the donor plate, and 280 μL of a solution obtained by adding DMSO in a percentage of 0.5% (v/v) to a 50 mM MOPSO buffer, pH 6.5, containing 5.0% (w/w) of glycocholic acid was added onto the artificial phospholipid membrane (acceptor plate). These plates were allowed to stand at 37° C. for 18 hours, after which the concentrations of the compound in the solutions in the donor plate and the acceptor plate were measured by LC/MS or LC/UV, and the membrane permeation rate of the compound (Pe) was calculated by the following formulas (1) and (2), where t is the testing time, A is the membrane filter area, VD is the amount of the donor solution, VA is the amount of the acceptor solution, CD,t is the concentration of the compound in the donor solution at the time t, and CA,t is the concentration of the compound in the acceptor solution at the time t.

| SMILES | Papp at 18 hours, 50 µM [×10⁻⁶ cm/s] |
| --- | --- |
| CC[C@H](C)[C@H]1C(=O)N[C@@H]([C@@H](C)O)C(=O)N[C@@H](Cc2ccccc2)C(=O)N2CCC[C@H]2C(=O)NCC(=O)N(C)[C@@H](CC(C)C)C(=O)N[C@H](C(=O)N(C)[C@@H](Cc2ccccc2)C(=O)N[C@@H](C)C(=O)N2CCCCC2)CC(=O)N[C@H](C(C)C)C(=O)N[C@@H](Cc2ccccc2)C(=O)N(C)[C@@H](CC(C)C)C(=O)N[C@@H](CC(C)C)C(=O)N1C [DP-278] ([dV]F[NMeL]L[NMeI]TFPG[NMeL]D[NMeF]A-Piperidide; lactam N-11) | 1.5 |
| CC[C@H](C)[C@@H]1NC(=O)[C@H](C)N(C)C(=O)C[C@@H](C(=O)N(C)[C@@H](Cc2ccccc2)C(=O)N[C@@H](C)C(=O)N2CCCCC2)NC(=O)[C@H](Cc2ccccc2)N(C)C(=O)CN(C)C(=O)[C@H]([C@@H](C)O)NC(=O)[C@H](C)N(C)C(=O)[C@H](C(C)C)N(C)C(=O)[C@H](CC(C)C)N(C)C(=O)[C@H](Cc2ccccc2)NC(=O)[C@H](CC(C)C)N(C)C1=O [DP-279] ([NMeA]I[NMeL]F[NMeL][NMeV][NMeA]T[Sar][NMeF]D[NMeF]A-Piperidide; lactam N-11) | 15 |
| CC[C@H](C)[C@@H]1NC(=O)[C@@H](C)N(C)C(=O)C[C@@H](C(=O)N(C)[C@@H](Cc2ccccc2)C(=O)N[C@@H](C)C(=O)N2CCCCC2)NC(=O)[C@H](Cc2ccccc2)NC(=O)[C@H]([C@@H](C)O)NC(=O)[C@@H]2CCCN2C(=O)CNC(=O)[C@H](CC(C)C)N(C)C(=O)[C@H](Cc2ccccc2)N(C)C(=O)[C@H](CC(C)C)N(C)C(=O)[C@H](CC(C)C)NC1=O [DP-283] ([dNMeA]IL[NMeL][NMeF][NMeL]GPTFD[NMeF]A-Piperidide; lactam N-11) | 1.5 |
| CC[C@H](C)[C@@H]1NC(=O)[C@H](Cc2ccccc2)N(C)C(=O)[C@H]([C@@H](C)O)NC(=O)[C@H](C)NC(=O)C[C@@H](C(=O)N(C)[C@@H](Cc2ccccc2)C(=O)N(C)[C@@H](Cc2ccccc2)C(=O)N[C@@H](C)C(=O)N2CCCCC2)NC(=O)[C@H](CC(C)C)N(C)C(=O)[C@H](CC(C)C)N(C)C(=O)[C@H](Cc2ccccc2)N(C)C(=O)[C@H](CC(C)C)N(C)C(=O)[C@H](C)N(C)C1=O [DP-286] (AT[NMeF]I[NMeA][NMeL][NMeF][NMeL][NMeL]D[NMeF][NMeF]A-Piperidide; lactam N-10) | 0.24 |
| CC(C)C[C@H]1C(=O)N(C)[C@@H](C(C)C)C(=O)N[C@@H](Cc2ccccc2)C(=O)N[C@H](C(=O)N(C)[C@@H](Cc2ccccc2)C(=O)N(C)[C@@H](Cc2ccccc2)C(=O)N[C@@H](C)C(=O)N2CCCCC2)CC(=O)N[C@@H](C)C(=O)N[C@@H](C(C)C)C(=O)N(C)[C@@H](CC(C)C)C(=O)N[C@@H]([C@@H](C)O)C(=O)N(C)[C@@H](Cc2ccccc2)C(=O)NCC(=O)N1C [DP-287] (AV[NMeL]T[NMeF]G[NMeL][NMeV]FD[NMeF][NMeF]A-Piperidide; lactam N-10) | 1.4 |
| CC[C@H](C)[C@@H]1NC(=O)[C@H](Cc2ccccc2)N(C)C(=O)[C@H]([C@@H](C)O)NC(=O)[C@@H](C)NC(=O)C[C@@H](C(=O)N(C)[C@@H](Cc2ccccc2)C(=O)N(C)[C@@H](Cc2ccccc2)C(=O)N[C@@H](C)C(=O)N2CCCCC2)NC(=O)[C@H](CC(C)C)N(C)C(=O)[C@H](CC(C)C)N(C)C(=O)[C@H](Cc2ccccc2)N(C)C(=O)[C@H](CC(C)C)N(C)C(=O)[C@H](C)N(C)C1=O [DP-289] ([dA]T[NMeF]I[NMeA][NMeL][NMeF][NMeL][NMeL]D[NMeF][NMeF]A-Piperidide; lactam N-10) | 0.14 |
| CC[C@H](C)[C@@H]1NC(=O)[C@H](CC(C)C)N(C)C(=O)[C@H](C)N(C)C(=O)[C@H]([C@@H](C)O)NC(=O)[C@H](CC(C)C)N(C)C(=O)[C@H](Cc2ccccc2)N(C)C(=O)[C@@H](C(C)C)NC(=O)C[C@@H](C(=O)N(C)[C@@H](Cc2ccccc2)C(=O)N[C@@H](C)C(=O)N2CCCCC2)NC(=O)[C@H](C(C)C)N(C)C1=O [DP-308] ([dV][NMeF][NMeL]T[NMeA][NMeL]I[NMeV]D[NMeF]A-Piperidide; lactam N-9) | 27 |
| CC(C)C[C@H]1C(=O)N(C)[C@@H](Cc2ccccc2)C(=O)NCC(=O)N(C)[C@@H](Cc2ccccc2)C(=O)N(C)[C@@H](C)C(=O)N[C@@H]([C@@H](C)O)C(=O)N[C@H](C(=O)N(C)[C@@H](Cc2ccccc2)C(=O)N(C)[C@@H](Cc2ccccc2)C(=O)N[C@@H](C)C(=O)N2CCCCC2)CC(=O)N(C)CCC(=O)N[C@@H](C(C)C)C(=O)N1C [DP-312] ([NMeβAla]V[NMeL][NMeF]G[NMeF][NMeA]TD[NMeF][NMeF]A-Piperidide; lactam N-9) | 47 |

same assay, conditions: PAMPA; membrane permeation rate (Pe); 50 mM MOPSO buffer pH 6.5 with 5.0% glycocholic acid, 37° C., 18 hours; read-out: iPAMPA Pe

| SMILES | Papp at 18 hours, 50 µM [×10⁻⁶ cm/s] |
| --- | --- |
| CC(C)C[C@H]1C(=O)N(C)[C@@H](CC(C)C)C(=O)N(C)[C@@H](Cc2ccccc2)C(=O)N[C@@H]([C@@H](C)O)C(=O)N(C)[C@@H](C)C(=O)N(C)[C@@H](CC(C)C)C(=O)N(C)[C@@H](Cc2ccccc2)C(=O)N[C@H](C(=O)N(C)[C@@H](Cc2ccccc2)C(=O)N[C@@H](C)C(=O)N2CCCCC2)CC(=O)N(C)[C@H](C)C(=O)N(C)[C@@H](CC(C)C)C(=O)N[C@@H](C)C(=O)N1C [DP-184] ([dNMeA][NMeL]A[NMeL][NMeL][NMeF]T[NMeA][NMeL][NMeF]D[NMeF]A-Piperidide; lactam N-11) | 1.3 |
| CC[C@H](C)[C@@H]1NC(=O)[C@H](CC(C)C)N(C)C(=O)[C@H](C(C)C)N(C)C(=O)[C@H](Cc2ccccc2)N(C)C(=O)[C@H](CC(C)C)NC(=O)[C@H](C)N(C)C(=O)[C@H](C)N(C)C(=O)[C@H]([C@@H](C)O)NC(=O)[C@H](Cc2ccccc2)N(C)C(=O)CN(C)C(=O)C[C@@H](C(=O)N(C)[C@@H](Cc2ccccc2)C(=O)N[C@@H](C)C(=O)N2CCCCC2)NC1=O [DP-186] ([Sar][NMeF]T[NMeA][NMeA]L[NMeF][NMeV][NMeL]ID[NMeF]A-Piperidide; lactam N-11) | 37 |
| CC(C)C[C@H]1C(=O)N[C@H](C(=O)N(C)[C@@H](Cc2ccccc2)C(=O)N[C@@H](C)C(=O)N2CCCCC2)CC(=O)N(C)[C@@H](C)C(=O)N[C@@H]([C@@H](C)O)C(=O)N(C)[C@@H](Cc2ccccc2)C(=O)N(C)[C@@H](CC(C)C)C(=O)N(C)[C@@H](CC(C)C)C(=O)N[C@@H](C)C(=O)N(C)[C@@H](Cc2ccccc2)C(=O)N(C)[C@@H](CC(C)C)C(=O)N1C [DP-192] ([NMeA]T[NMeF][NMeL][NMeL]A[NMeF][NMeL][NMeL]D[NMeF]A-Piperidide; lactam N-10) | 0.64 |
| CC(C)C[C@H]1C(=O)N[C@H](C(=O)N(C)[C@@H](Cc2ccccc2)C(=O)N(C)[C@@H](Cc2ccccc2)C(=O)N[C@@H](C)C(=O)N2CCCCC2)CC(=O)N(C)[C@@H](C)C(=O)N(C)[C@@H](C)C(=O)N(C)[C@@H](Cc2ccccc2)C(=O)N[C@@H]([C@@H](C)O)C(=O)N(C)[C@@H](C)C(=O)N(C)[C@@H](CC(C)C)C(=O)N(C)[C@@H](CC(C)C)C(=O)N[C@@H](C(C)C)C(=O)N1C [DP-206] ([NMeA][NMeA][NMeF]T[NMeA][NMeL][NMeL]V[NMeL]D[NMeF][NMeF]A-Piperidide; lactam N-10) | 9 |
| CC(C)C[C@H]1C(=O)N[C@H](C(=O)N(C)[C@@H](Cc2ccccc2)C(=O)N(C)[C@@H](Cc2ccccc2)C(=O)N[C@@H](C)C(=O)N2CCCCC2)CC(=O)N[C@H](C(C)C)C(=O)N(C)[C@@H](Cc2ccccc2)C(=O)N(C)[C@@H](CC(C)C)C(=O)N[C@@H]([C@@H](C)O)C(=O)N(C)[C@@H](C)C(=O)N(C)[C@@H](CC(C)C)C(=O)N[C@@H](C(C)C)C(=O)N1C [DP-210] ([dV][NMeF][NMeL]T[NMeA][NMeL]V[NMeL]D[NMeF][NMeF]A-Piperidide; lactam N-9) | 1.8 |
| CC(C)C[C@H]1C(=O)N(C)[C@@H](C)C(=O)N[C@@H](COC(C)(C)C)C(=O)N(C)[C@@H](C(C)C)C(=O)N[C@H](C(=O)N2CCCCC2)CC(=O)N(C)[C@@H](C)C(=O)N(C)[C@@H](Cc2ccccc2)C(=O)N[C@@H](C)C(=O)N(C)[C@@H](C)C(=O)N[C@@H](Cc2ccccc2)C(=O)N[C@@H]([C@@H](C)O)C(=O)N(C)[C@@H](C)C(=O)N1C [DP-317] ([NMeA][NMeF]A[NMeA]FT[NMeA][NMeL][NMeA]S(tBu)[NMeV]D-Piperidide; lactam N-12) | 20 |
| CC(C)C[C@@H]1NC(=O)[C@H](Cc2ccccc2)N(C)C(=O)CCN(C)C(=O)C[C@@H](C(=O)N2CCCCC2)NC(=O)[C@H](Cc2ccccc2)N(C)C(=O)[C@H](C)N(C)C(=O)[C@H]([C@@H](C)O)NC(=O)CN(C)C(=O)[C@H](C(C)C)N(C)C(=O)[C@H](C)NC(=O)[C@H](C(C)C)N(C)C(=O)[C@H](CC(C)C)N(C)C1=O [DP-318] ([NMeβAla][NMeF]L[NMeL][NMeV]A[NMeV][Sar]T[NMeA][NMeF]D-Piperidide; lactam N-12) | 26 |
| CC[C@H](C)[C@@H]1NC(=O)[C@H](Cc2ccccc2)N(C)C(=O)[C@H](CC(C)C)N(C)C(=O)[C@H](Cc2ccccc2)NC(=O)[C@H]([C@@H](C)O)NC(=O)[C@H](CC(C)C)N(C)C(=O)[C@H](CC(C)C)NC(=O)CCN(C)C(=O)C[C@@H](C(=O)N2CCCCC2)NC(=O)[C@H](CC(C)C)N(C)C1=O [DP-336] ([NMeβAla]L[NMeL]TF[NMeL][NMeF]I[NMeL]D-Piperidide; lactam N-10) | 35 |
